The values that follow are results of earlier work, collected in patent US8906391B2, “Thermorod for active drug release and method for manufacturing the same” (Korea Sangsa Co., Ltd., priority 2008, dated 2014).

Molecules are shown by their SMILES.

The conditions of this data set: characteristics of the drugs, Table 1.

`CC(=O)O[C@@]12CO[C@@H]1C[C@H](O)[C@@]1(C)C(=O)[C@H](O)C3=C(C)[C@@H](OC(=O)[C@H](O)[C@@H](NC(=O)OC(C)(C)C)c4ccccc4)C[C@@](O)([C@@H](OC(=O)c4ccccc4)[C@H]21)C3(C)C` [Docetaxel]: the “Hydrophobicity (Log P)” value is listed as 4.258.

Turning to `CC(=O)O[C@H]1C(=O)[C@@]2(C)[C@H]([C@H](OC(=O)c3ccccc3)[C@]3(O)C[C@H](OC(=O)[C@H](O)[C@@H](NC(=O)c4ccccc4)c4ccccc4)C(C)=C1C3(C)C)[C@]1(OC(C)=O)CO[C@@H]1C[C@@H]2O` [Paclitaxel], the “Hydrophobicity (Log P)” value is on record as 5.029. Regarding `CC(=O)Nc1ccc(O)cc1` [Acetaminophen], the “Hydrophobicity (Log P)” value is reported as 0.917.

For the compound `CC[C@H]1OC(=O)[C@H](C)[C@@H](O[C@H]2C[C@@](C)(OC)[C@@H](O)[C@H](C)O2)[C@H](C)[C@@H](O[C@@H]2O[C@H](C)C[C@H](N(C)C)[C@H]2O)[C@](C)(O)C[C@@H](C)C(=O)[C@H](C)[C@@H](O)[C@]1(C)O` [Erythromycin], the “Hydrophobicity (Log P)” value is 3.06.
